Data set [1] has as its system MCF7. The data set can be described thus: Antitumor activity against human MCF7 cells assessed as inhibition of cell viability incubated for 48 hrs by MTT assay. The format is functional, cell-based. Particulars: MCF7, 48 h.
Data set [2] concerns Staphylococcus aureus. The data set can be described thus: Antimicrobial activity against Staphylococcus aureus incubated for 24 hrs by disc diffusion assay. The format is functional. In general terms: In agar diffusion tests the substance spreads into inoculated agar from a disc or well.
For data set [3], the system named is Mus musculus. The data set can be described thus: Toxicity in mouse EAC cells implanted Swiss albino mouse assessed as RBC count at 0.5 mg for 9 days (reference value: 3.69 10^6/mm3). The format is organism-based. To be noted: in vivo, 216 h.
Data set [4] deals with HT-29. As to the kind of experiment: Antitumor activity against human HT-29 cells assessed as inhibition of cell viability incubated for 48 hrs by MTT assay. The format is functional, cell-based. Particulars: HT-29, 48 h.
Data set [5] has as its system Escherichia coli. The data set can be described thus: Antimicrobial activity against Escherichia coli incubated for 24 hrs by disc diffusion assay. The class given is functional.
Data set [6] has as its system Ehrlich. The data set can be described thus: Antitumor activity against mouse EAC cells implanted in Swiss albino mouse assessed as mean survival time at 0.5 mg for 9 days (reference value: 14.5 day). The format is functional.
For data set [7], the system named is Bacillus cereus. As to the kind of experiment: Antimicrobial activity against Bacillus cereus incubated for 24 hrs by serial dilution method. The class given is functional.
In data set [8] the test system is Aspergillus fumigatus. The data set can be described thus: Antimicrobial activity against Aspergillus fumigatus incubated for 48 hrs by disc diffusion assay. The format is functional.
In data set [9] the test system is HepG2. The data set can be described thus: Antitumor activity against human HepG2 cells assessed as inhibition of cell viability incubated for 48 hrs by MTT assay. To be noted: HepG2, 48 h. The class given is functional, cell-based. In general terms: Tetrazolium assays rely on reduction of a dye to a coloured formazan, in cell work by metabolically active cells.

In data set [10] the test system is Chromobacterium violaceum. As to the kind of experiment: Inhibition of quorum sensing system in Chromobacterium violaceum ATCC 12472 assessed as inhibition of violacein production at 5 mg/mL incubated for 48 hrs.
For data set [11], the system named is Ehrlich. As to the kind of experiment: Antitumor activity against mouse EAC cells implanted in Swiss albino mouse assessed as tumor volume at 0.5 mg for 9 days (reference value: 9.85 ml). The class given is functional.
Data set [12] relates to Staphylococcus aureus. As to the kind of experiment: Antimicrobial activity against Staphylococcus aureus incubated for 24 hrs by serial dilution method. The format is functional.
Data set [13] can be described thus: Binding affinity to DNA (unknown origin) assessed as reduction in absorption maxima for methyl green/DNA complex incubated for 24 hrs by methyl green/DNA displacement assay.
For data set [14], the system named is Ehrlich. As to the kind of experiment: Antitumor activity against mouse EAC cells implanted in Swiss albino mouse assessed as reduction in tumor cell count at 0.5 mg for 9 days (reference value: 9.85 ml). The class given is functional, cell-based.
For data set [15], the system named is Escherichia coli. The data set can be described thus: Antimicrobial activity against Escherichia coli incubated for 24 hrs by serial dilution method. The class given is functional.
For data set [16], the system named is Mus musculus. As to the kind of experiment: Toxicity in mouse EAC cells implanted Swiss albino mouse assessed as hemoglobin level at 0.5 mg for 9 days (reference value: 8.15 g/dl). To be noted: in vivo, 216 h. The format is organism-based.
Data set [17] relates to WI-38. As to the kind of experiment: Cytotoxicity in human WI38 cells assessed as inhibition of cell viability incubated for 48 hrs by MTT assay. Particulars: WI-38, 48 h. The class given is cell-based.
The subject of data set [18] is Candida albicans. As to the kind of experiment: Antimicrobial activity against Candida albicans incubated for 48 hrs by disc diffusion assay. The class given is functional.
Data set [19] concerns Ehrlich. As to the kind of experiment: Antitumor activity against mouse EAC cells implanted in Swiss albino mouse assessed as increase in life span at 0.5 mg for 9 days relative to untreated control. The class given is functional.
In data set [20] the test system is Mus musculus. The data set can be described thus: Toxicity in mouse EAC cells implanted Swiss albino mouse assessed as WBC count at 0.5 mg for 9 days (reference value: 23.96 10^3/mm3). The format is organism-based. Particulars: in vivo, 216 h.
The test system of data set [21] is Bacillus cereus. The data set can be described thus: Antimicrobial activity against Bacillus cereus incubated for 24 hrs by disc diffusion assay. The class given is functional.
Data set [22] has as its system Aspergillus fumigatus. As to the kind of experiment: Antimicrobial activity against Aspergillus fumigatus incubated for 48 hrs by serial dilution method. The class given is functional.
Data set [23] has as its system Candida albicans. The data set can be described thus: Antimicrobial activity against Candida albicans incubated for 48 hrs by serial dilution method. The format is functional.

Values after ≈ are worked out from the molar mass of the structure shown. Active and inactive are the calls of the source. No cut-off for these calls is given here. Some results are limits rather than exact numbers.

Consider `CCOC(=O)/C(=N/Nc1sc2c(c1C(=O)OCC)CCCCC2)C(C)=O`, for which the IC50 (as a rule, the concentration that inhibits the measured activity by half) in data set [1] was determined as 5.8 µM; in data set [4], 4.5 µM; in data set [9] it was 9.1 µM; in data set [13] it was 40.6 µM; in [17], 44.8 µM. The “diameter of the inhibition zone (DIZ)” value was 32 mm in [2]; 22 mm in data set [5]; below 2 mm in data set [8]; below 2 mm in data set [18]; 24 mm in data set [21]. Besides, the Activity in data set [3] stood at 5.51 ×10⁶ /mm3; in data set [11], 1.97 mL; in data set [16] it was 13.15 g/dL; in [20], 7.11 ×10³ /mm3. For the same compound, the MST in data set [6] was determined as 45 days. Also, the results for the MIC in data set [7], in [12] and in data set [15] were 411 µM (≈ 156 µg/mL), 205 µM (≈ 78.1 µg/mL) and 205 µM (≈ 78.1 µg/mL), respectively. Further, the INH in data set [10] was below 2 mm. Moreover, in [14], the result was Active. In data set [19], the ILS (in general, the gain in survival time of treated over control animals, in per cent) is recorded as 210.34%.
As to `CC1=NN=C(C)C1=NNc1sc2c(c1C(=O)NN)CCCCC2`, the half-inhibitory concentration (IC50) in data set [1] amounted to 4.1 µM; in [4], 5.7 µM; in [9], 6.9 µM; in [13], 27.8 µM; in data set [17], 33.2 µM. Besides, the “diameter of the inhibition zone (DIZ)” value in data set [2], in [5], in [8], in [18] and in data set [21] was below 2 mm in each case. The Activity in [3] was 5.57 ×10⁶ /mm3; in data set [11], 1.85 mL; in [16], 13.23 g/dL; in data set [20], 6.9 ×10³ /mm3. Also, the MST in data set [6] was found to be 47.5 days. The INH in data set [10] is 5 mm. Moreover, the outcome in data set [14] was Active. The ILS in [19] came out at 227.55%.
Turning to `CCOC(=O)/C(=N/Nc1sc2c(c1C(=O)OCC)CCC2)C(C)=O`, the IC50 amounted to 9.7 µM in data set [1]; 8.8 µM in data set [4]; 16.1 µM in data set [9]; 65.7 µM in data set [13]; 25.3 µM in [17]. In addition, the “diameter of the inhibition zone (DIZ)” value in data set [2] was below 2 mm; in data set [5], 4 mm; in [8], 16 mm; in [18], 5 mm; in data set [21], 7 mm. Besides, the Activity turned out to be 5.49 ×10⁶ /mm3 in [3], 2.32 mL in data set [11], 13.1 g/dL in data set [16] and 7.56 ×10³ /mm3 in data set [20]. Also, in [6], the MST is 44.3 days. Besides, the INH in data set [10] worked out at 6 mm. Besides, the result in data set [14] was Active. Further, the MIC (usually the lowest concentration that inhibits growth of the organism) in [22] is 887 µM (≈ 312 µg/mL). Also, the ILS in data set [19] is reported as 205.52%.
For `CCOC(=O)c1c(NN=C(C(C)=O)C(C)=O)sc2c1CCC2`, the IC50 is 7.6 µM in [1]; 18.7 µM in data set [4]; 13.8 µM in [9]; 42.2 µM in data set [13]; 33.5 µM in data set [17]. Further, the “diameter of the inhibition zone (DIZ)” value in data set [2] came to 22 mm; in [5] it was 21 mm; in [8], 26 mm; in data set [18] it was 23 mm; in [21] it was 26 mm. For the same compound, the Activity in data set [3] was found to be 4.95 ×10⁶ /mm3; in data set [11], 3.13 mL; in [16], 12.23 g/dL; in data set [20], 8.76 ×10³ /mm3. In addition, the MST in [6] turned out to be 39.5 days. For the same compound, the MIC in data set [7], in data set [12], in data set [15], in [23] and in data set [22] was 485 µM (≈ 156 µg/mL) throughout. For the same compound, the INH in [10] turned out to be 11 mm. The ILS in [19] is reported as 172.35%.

(Values after ChEMBL document CHEMBL4190350, “Synthesis, antimicrobial, antiquorum-sensing, antitumor and cytotoxic activities of new series of cyclopenta(hepta)[b]thiophene and fused cyclohepta[b]thiophene analogs” (Eur J Med Chem, 2017).)
